Test results as given in ChEMBL document CHEMBL3885881, “DrugMatrix”.

Organism: Rattus norvegicus
Test: DrugMatrix - Regimen: Daily Repeat
Assay type: toxicity, organism-based, Sprague-Dawley
Set-up: regimen Daily Repeat, gender Male, age 6-8 weeks
Conditions: in vivo, po, route oral GAVAGE, vehicle .5 % CMC; for ABSOLUTE BASOPHIL / ABSOLUTE EOSINOPHIL / ABSOLUTE LYMPHOCYTE / ABSOLUTE MONOCYTE / ABSOLUTE SEGMENTED NEUTROPHIL / BASOPHIL / EOSINOPHIL / ERYTHROCYTE COUNT / HEMATOCRIT / HEMOGLOBIN / LEUKOCYTE COUNT / LYMPHOCYTE / MEAN CORPUSCULAR HEMOGLOBIN / MEAN CORPUSCULAR HEMOGLOBIN CONCENTRATION / MEAN CORPUSCULAR VOLUME / MONOCYTE / NEUTROPHIL / NUCLEATED RED BLOOD CELLS / PLATELET COUNT: tissue Blood; for ALANINE AMINOTRANSFERASE / ALBUMIN / ALKALINE PHOSPHATASE / ASPARTATE AMINOTRANSFERASE / BLOOD UREA NITROGEN / CARBON DIOXIDE / CHLORIDE / CHOLESTEROL / CREATINE PHOSPHOKINASE / CREATININE / GLUCOSE / LACTATE DEHYDROGENASE / LIPASE / PHOSPHORUS / POTASSIUM / SODIUM / TOTAL BILIRUBIN / TOTAL PROTEIN / URIC ACID: tissue Plasma
[1] = 150 mg/kg, 120 h, dose level Low, time 5 day
[2] = 1500 mg/kg, 72 h, dose level High, time 3 day
[3] = 1500 mg/kg, 120 h, dose level High, time 5 day

C[C@@H](O)[C@H]1C(=O)N2C(C(=O)O)=C(S[C@@H]3CN[C@H](C(=O)N(C)C)C3)[C@H](C)[C@H]12 [MEROPENEM]
ABSOLUTE BASOPHIL [1]: 0 CELLS/uL
ABSOLUTE EOSINOPHIL [1]: 351 CELLS/uL
ABSOLUTE LYMPHOCYTE [1]: 13228.33 CELLS/uL
ABSOLUTE MONOCYTE [1]: 0 CELLS/uL
ABSOLUTE SEGMENTED NEUTROPHIL [1]: 1520.67 CELLS/uL
BASOPHIL [1]: 0%
EOSINOPHIL [1]: 2.33%
ERYTHROCYTE COUNT [1]: 5.62 x10E6/uL
HEMATOCRIT [1]: 34.4%
HEMOGLOBIN [1]: 13.1 G/DL
LEUKOCYTE COUNT [1]: 15.1 x10E3/uL
LYMPHOCYTE [1]: 88%
MEAN CORPUSCULAR HEMOGLOBIN [1]: 23.37 pg
MEAN CORPUSCULAR HEMOGLOBIN CONCENTRATION [1]: 38.1 G/DL
MEAN CORPUSCULAR VOLUME [1]: 61.33 fL
MONOCYTE [1]: 0%
NEUTROPHIL [1]: 9.67%
NUCLEATED RED BLOOD CELLS [1]: 0 /100WBC
PLATELET COUNT [1]: 1149.33 x10E3/uL
ALANINE AMINOTRANSFERASE [1]: 61.33 u/L
ALBUMIN [1]: 4.13 G/DL
ALKALINE PHOSPHATASE [1]: 367 u/L
ASPARTATE AMINOTRANSFERASE [1]: 86 u/L
BLOOD UREA NITROGEN [1]: 19 mg/dL
CARBON DIOXIDE [1]: 25.33 mmol/L
CHLORIDE [1]: 101.67 MEQ/L
CHOLESTEROL [1]: 70 mg/dL
CREATINE PHOSPHOKINASE [1]: 254 u/L
CREATININE [1]: 0.23 mg/dL
GLUCOSE [1]: 161 mg/dL
LACTATE DEHYDROGENASE [1]: 187.67 u/L
LIPASE [1]: 9 u/L
PHOSPHORUS [1]: 12.3 mg/dL
POTASSIUM [1]: 6.26 MEQ/L
SODIUM [1]: 142.3 MEQ/L
TOTAL BILIRUBIN [1]: 0.17 mg/dL
TOTAL PROTEIN [1]: 5.93 G/DL
URIC ACID [1]: 1.6 mg/dL
ABSOLUTE BASOPHIL [2]: 0 CELLS/uL
ABSOLUTE EOSINOPHIL [2]: 214 CELLS/uL
ABSOLUTE LYMPHOCYTE [2]: 12444.67 CELLS/uL
ABSOLUTE MONOCYTE [2]: 0 CELLS/uL
ABSOLUTE SEGMENTED NEUTROPHIL [2]: 841.33 CELLS/uL
BASOPHIL [2]: 0%
EOSINOPHIL [2]: 1.33%
ERYTHROCYTE COUNT [2]: 5.72 x10E6/uL
HEMATOCRIT [2]: 35.5%
HEMOGLOBIN [2]: 13.53 G/DL
LEUKOCYTE COUNT [2]: 13.5 x10E3/uL
LYMPHOCYTE [2]: 92.33%
MEAN CORPUSCULAR HEMOGLOBIN [2]: 23.8 pg
MEAN CORPUSCULAR HEMOGLOBIN CONCENTRATION [2]: 38.2 G/DL
MEAN CORPUSCULAR VOLUME [2]: 62.23 fL
MONOCYTE [2]: 0%
NEUTROPHIL [2]: 6.33%
NUCLEATED RED BLOOD CELLS [2]: 0 /100WBC
PLATELET COUNT [2]: 1189 x10E3/uL
ALANINE AMINOTRANSFERASE [2]: 52.67 u/L
ALBUMIN [2]: 4.33 G/DL
ALKALINE PHOSPHATASE [2]: 317 u/L
ASPARTATE AMINOTRANSFERASE [2]: 76 u/L
BLOOD UREA NITROGEN [2]: 13.33 mg/dL
CARBON DIOXIDE [2]: 29.33 mmol/L
CHLORIDE [2]: 99.67 MEQ/L
CHOLESTEROL [2]: 85.33 mg/dL
CREATINE PHOSPHOKINASE [2]: 176.67 u/L
CREATININE [2]: 0.17 mg/dL
GLUCOSE [2]: 160.67 mg/dL
LACTATE DEHYDROGENASE [2]: 71 u/L
LIPASE [2]: 9 u/L
PHOSPHORUS [2]: 11.83 mg/dL
POTASSIUM [2]: 6.87 MEQ/L
SODIUM [2]: 144.6 MEQ/L
TOTAL BILIRUBIN [2]: 0.17 mg/dL
TOTAL PROTEIN [2]: 5.9 G/DL
URIC ACID [2]: 1.9 mg/dL
ABSOLUTE BASOPHIL [3]: 0 CELLS/uL
ABSOLUTE EOSINOPHIL [3]: 276.67 CELLS/uL
ABSOLUTE LYMPHOCYTE [3]: 12982 CELLS/uL
ABSOLUTE MONOCYTE [3]: 0 CELLS/uL
ABSOLUTE SEGMENTED NEUTROPHIL [3]: 1474.67 CELLS/uL
BASOPHIL [3]: 0%
EOSINOPHIL [3]: 2%
ERYTHROCYTE COUNT [3]: 5.69 x10E6/uL
HEMATOCRIT [3]: 36.37%
HEMOGLOBIN [3]: 13.67 G/DL
LEUKOCYTE COUNT [3]: 14.73 x10E3/uL
LYMPHOCYTE [3]: 88%
MEAN CORPUSCULAR HEMOGLOBIN [3]: 24.07 pg
MEAN CORPUSCULAR HEMOGLOBIN CONCENTRATION [3]: 37.6 G/DL
MEAN CORPUSCULAR VOLUME [3]: 63.97 fL
MONOCYTE [3]: 0%
NEUTROPHIL [3]: 10%
NUCLEATED RED BLOOD CELLS [3]: 0 /100WBC
PLATELET COUNT [3]: 1178 x10E3/uL
ALANINE AMINOTRANSFERASE [3]: 52.33 u/L
ALBUMIN [3]: 4.47 G/DL
ALKALINE PHOSPHATASE [3]: 443.33 u/L
ASPARTATE AMINOTRANSFERASE [3]: 75.67 u/L
BLOOD UREA NITROGEN [3]: 16.67 mg/dL
CARBON DIOXIDE [3]: 28.33 mmol/L
CHLORIDE [3]: 101.33 MEQ/L
CHOLESTEROL [3]: 60.67 mg/dL
CREATINE PHOSPHOKINASE [3]: 199 u/L
CREATININE [3]: 0.23 mg/dL
GLUCOSE [3]: 155 mg/dL
LACTATE DEHYDROGENASE [3]: 127.33 u/L
LIPASE [3]: 9 u/L
PHOSPHORUS [3]: 12.27 mg/dL
POTASSIUM [3]: 6.59 MEQ/L
SODIUM [3]: 147.07 MEQ/L
TOTAL BILIRUBIN [3]: 0.13 mg/dL
TOTAL PROTEIN [3]: 6.3 G/DL
URIC ACID [3]: 1.6 mg/dL
